The record followed here is patent publication EP2557075A1, “New triazene compounds for treating cancer” (Trin Therapeutics GmbH, priority 2011, dated 2013).

In series [1] the test system is drei Pankreaskrebszelllinien. In words: IC50 of triazenes in three pancreatic cancer cell lines (Experiment 4). Format: cell-based. From the text: Verschiedene Triazene wie erfindungsgemäße Verbindungen nach Beispiel 1, DTIC, TMZ sowie Verbindungen nach Präparat 2 und 5 (entsprechend Verbindungen nach Präparat 2 und Beispiel 2a jeweils der WO 2009/004060) sowie Verbindungen nach Beispiel 2 und 33 der DE1793115 wurden in DMSO bzw. Wasser gelöst.

For series [2], the system named is Mammakarzinome. As to the kind of experiment: Benzidine-induced mammary carcinoma in female rats (Experiment 6). Format: in vivo, Ratten. The note with it: s.c. or peroral, observation to day 30, percent median vs. start of treatment. As for the experimental part:
Die Mammakarzinome werden durch subkutane Injektionen von in physiologischer Kochsalz-Lösung suspendiertem Benzidin an weiblichen Ratten induziert. Je nach Art des Rattenstammes sind dazu unterschiedlich hohe Gesamtdosen und verschieden lange Induktionszeiten erforderlich. Bei zwei untersuchten Wistar-Stämmen (Züchter: Spiegel bzw. Winkelmann) erscheinen die Tumoren nach einer Induktionszeit von 150-330 Tagen und einer Gesamtdosis von 1000 bis 1225mg/kg Benzidin subkutan. Bei zwei verschiedenen Sprague-Dawley-Stämmen (Züchter: Mus Rattus AG bzw. Winkelmann) genügt schon eine einzige Benzidin-Injektion von 150mg/kg s.c., um nach 60-180 Tagen die Mammakarzinome entstehen zu lassen. Die Mammakarzinome entwickeln sich fast immer multipel. Acht oder mehr Tumoren pro Tier sind keine Seltenheit. Die Tumoren wachsen ziemlich schnell und führen etwa 30 bis 1 20 Tage nach Tastbarwerden zum Tode der Ratten. Nach 30 Tagen ist eine Tumorgröße von 6g zu erwarten (Figur 1 aus DE 01 7931 15).
Die Vergleichssubstanzen wurden für 30 Tage täglich s.c, oder peroral in Dosierungen zwischen 50-200mg/kg verabreicht. Die Verbindung nach Beispiel 1 wurde s.c. über die ersten 7 Tage in Dosierungen zwischen 20 und 100mg/kg, so dann in Dosierungen von 200 bis 1000mg/kg (in Stufen von 100mg/kg) für weitere 10 Tage appliziert. Bis zum Tag 30 erfolgte keine weitere Behandlung. […]

The test system of series [3] is periphere Blutzellen (PBC). As to the kind of experiment: Cell damage (apoptosis rate, CaspACE assay, flow cytometry) in peripheral blood cells (Experiment 5). Format: cell-based. The text has this:
Um die therapeutische Breite der neuen Substanzen abschätzen zu können, wurden periphere Blutzellen (PBC) und hämatologische Zellen (Nalm-6; CEM und U-937) für 24 Stunden mit unterschiedlichen Dosen verschiedener Triazenverbindungen bzw. Doxorubicin als positive Kontrolle für die hämatologischen Zelllinien inkubiert. Das Maß der Zellschädigung (Apoptoserate) wurde mittels CaspACE™ Assay (am Durchflusszytometer) bestimmt.
Verschiedene Triazene wie erfindungsgemäße Verbindungen nach Beispiel 1, TMZ sowie Verbindungen nach Präparat 2 und 5 (entsprechend Verbindungen nach Präparat 2 und Beispiel 2a jeweils der WO 2009/004060) wurden in DMSO bzw. Wasser entsprechend den Angaben in Abbildung 22 gelöst.
Periphäre Blutzellen (PBC) werden jeweils mit der IC50 für die MDA-MB231 gemäß Experiment 3 der entsprechenden Substanzen inkubiert. Es wird gezeigt, dass die erfindungsgemäße Verbindung nach Beispiel 1 nicht mehr DNA-Schädigungen in den PBC erzeugt als eine Negativkontrolle, […]
For orientation: In flow cytometry, cells or beads pass a laser one at a time.

The subject of series [4] is HL-60. As to the kind of experiment: Growth inhibition (IC50) in leukaemic HL-60 cells (Experiment 7). Format: cell-based. The note with it: for IC50: Homo sapiens, HL-60, 24 Stunden. The text has this:
(§1) Hämatologische Zellen (CEM, HL-60) wurden für 24 Stunden mit unterschiedlichen Dosen verschiedener Triazenverbindungen inkubiert, um die IC50 zu bestimmen.

Series [5] deals with MDA-MB231. As to the kind of experiment: Cell cycle analysis by flow cytometry in MDA-MB231 (Experiment 9). The note with it: MDA-MB231, incubated with IC50, nach 10 bzw. 24 Stunden. It is filed as cell-based. From the text: Die Progression durch den Zellzyklus ist charakterisiert durch die mitotische Teilung (M-Phase) und der sich anschließenden Interphase, Die Interphase gliedert sich wiederum in die G1 -, S- und G2-Phase, In der G1-Phase beginnt die Zelle zu wachsen und es liegt ein vollständiger Chromosomensatz vor. In der S-Phase erfolgt die Replikation der DNA, wodurch an ihrem Ende der zweifache Chromosomensatz vorliegt. In der G2-Phase bereitet sich die Zelle auf die mitotische Teilung vor, an dessen Ende wieder der einfache Chromosomensatz vorhanden ist. Zusätzlich zu diesen Phasen kann eine sog. sub-G1-Phase vorliegen. Diese ist charakterisiert durch fragmentierte, apoptotische Zellen, die durch degradierte DNA charakterisiert ist. In welchem Stadium sich die Zelle befindet bzw. arretiert sein kann, lässt sich mittels Durchflusszytometrie bestimmen (Brockhoff et al. 2007; Lenz et al. 2007).
Zellkulturen von MDA-MB231 bzw. HL-60 wurden mit der IC50 (MDA-MB231) bzw. IC90 (HL-60) der beiden Test-Substanzen für bis zu 72 Stunden inkubiert und auf die Zellzyklusentwicklung hin untersucht.

Series [6] relates to CEM. In words: Growth inhibition (IC50) in leukaemic CEM cells (Experiment 7). Format: cell-based. The note with it: Homo sapiens, CCRF-CEM, 24 Stunden.
From the text: as §1

In series [7] the test system is MCF-7-Zellen. As to the kind of experiment: Intracellular metabolisation of triazenes in MCF-7 cell culture (Experiment 1). The note with it: MCF-7, 100nmol/ml, 100% FCS. It is filed as in vitro ADME. As to the method:
Es wird gezeigt, dass Verbindungen nach Beispiel 1 schneller und in größerer Menge intrazellulär metabolisiert werden als die als Vergleichssubstanzen eingesetzten Verbindungen nach Präparat 2 und 5 (entsprechend Verbindungen nach Präparat 2 und Beispiel 2a jeweils der WO 2009/004060).
Die getesteten Verbindungen wurden wie folgt gelöst: • Erfindungsgemäße Verbindung: • Beispiel 1 : in 20 mg/ml DMSO
Vergleichssubstanzen: • Präparat 2: in 50mg/ml DMSO, • Präparat 5: in 50mg/ml Wasser.
Alle drei Substanzen wurden äquimolar in einer Dosis von 100nmol/ml auf 1 x 10^7 HepG2 bzw. MCF-7-Zellen gegeben. Als Zellkulturmedium wurde 100% fötales Kälberserum (FCS) verwendet. Für den Versuch wurde der Gehalt aus Ausgangsprodukt und Metaboliten im Zellüberstand nach 1, 3 und 6 (HepG2) bzw. 1,3 und 20 Stunden (MCF-7) Inkubationszeit ermittelt. Alle drei Substanzen zeigten in Kontrollversuchen mit 100% FCS nach 40 Stunden metabolische Stabilität.

Structures are written as SMILES. Read-outs that look alike come from different tables or passages of the source.

On to `CN(C)N=Nc1ccc(C(=O)c2ccc(O)cc2)cc1` [Beispiel 1], for which, in series [1], the “antitumorale Aktivität (IC50) compared with Vergleichssubstanzen” value is “deutliche Überlegenheit”. The “Entwicklung der Tumorgewichte” value in series [2] is on record as “zu jedem Beobachtungszeitpunkt langsamer als unter einer Therapie mit den verwendeten Vergleichssubstanzen”. Besides, the “Zellschädigung (Apoptoserate) vs. Negativkontrolle” value in series [3] (PBC, 24 stündige Inkubation) is recorded as “nicht mehr geschädigt als durch eine Negativkontrolle”. In addition, in series [3] (Versuch 1 Lymphozyten, 24 Stunden incubation at the IC50 for MDA-MB231), the “% Zellen in Apoptose” value is 8,120%. Moreover, the “Wachstumshemmung in x-fach niedrigerer Konzentration” value in series [4] (CEM und HL-60, vs. Triazenverbindungen aus WO2009/004060 und Beispiel 33 aus DE 1793115) is given as ≤ 100 -fach. In addition, the IC50 (usually the concentration at which inhibition is half-maximal) in series [4] (mean of Exp. 1-5, read-out: IC50 Mittelwert) was found to be 16.3 µM; in series [4] (read-out: IC50 Exp. 1), 12.6 µM; in series [4] (read-out: IC50 Exp. 2) it was 15.2 µM; in series [4] (read-out: IC50 Exp. 3) it was 24.2 µM; in series [4] (read-out: IC50 Exp. 4) it was 16 µM; in series [4] (read-out: IC50 Exp. 5), 13.4 µM. The IC50 amounted to 22.8 µM in series [6] (mean of Exp. 1-4, read-out: IC50 Mittelwert); 23.4 µM in series [6] (read-out: IC50 Exp. 1); 29.7 µM in series [6] (read-out: IC50 Exp. 2); 23.8 µM in series [6] (read-out: IC50 Exp. 3); 14.1 µM in series [6] (read-out: IC50 Exp. 4). For the same compound, the Zellzyklus entry in series [5] was “ausgeprägten G2 Arrest nach 10 bzw. 24 Stunden und massivem Zelltod (SubG1)”. Further, the metabolisiert entry is listed as “mehr als der Hälfte” in series [7] (innerhalb von 1 Stunde) and “vollständig metabolisiert” in series [7] (nach 3 Stunden).
